This passage reports IC50 results from ChEMBL document CHEMBL1156394, “Low-density lipoprotein-antioxidant constituents of Saururus chinensis” (J Nat Prod, 2001).

The test has as its system Plasma. The test is described as follows: Antioxidant activity assessed as inhibition of LDL oxidation in human plasma. Format: functional, cell-free.

As for `CC(C)(Sc1cc(C(C)(C)C)c(O)c(C(C)(C)C)c1)Sc1cc(C(C)(C)C)c(O)c(C(C)(C)C)c1` [PROBUCOL], the concentration for half-maximal inhibition (IC50) (usually the concentration needed to halve the response being measured) was 1300 nM.
Take `C/C=C/c1ccc(O[C@@H](C)[C@@H](O)c2ccc(OC)c(OC)c2)c(OC)c1` [VIROLIN]: the half-maximal inhibitory concentration (IC50) was found to be 4300 nM.
Turning to `C/C=C/c1ccc(O[C@@H](C)[C@@H](O)c2ccc(O)c(OC)c2)c(OC)c1` [MACHILIN D], the concentration for half-maximal inhibition (IC50) stood at 2900 nM.
